Assays:
[1] = system: T1, PaHDR1; test: LC-MS/MS of DMADP + IDP, initial velocities, Lineweaver-Burk; format: biochemical, Picea abies; details: anaerobic; 1 mM methyl viologen, 3 mM sodium dithionite, MgCl2; pH 6.5; 30 °C or 35 °C
T1 construct: gene HDR1; plastid transit peptide removed (borders only in supplemental primers); E. coli BL21-AI; anaerobic glutathione column; [4Fe-4S] enzyme

[2] = system: T2, PaHDR2; test: as above; format: biochemical, Picea abies; details: anaerobic; 1 mM methyl viologen, 3 mM sodium dithionite, MgCl2; pH 6.5; 30 °C or 35 °C; text calls PaHDR1 the lower-affinity enzyme, against the printed order of Km values; Figure 3 legend
T2 construct: gene HDR2; plastid transit peptide removed (borders only in supplemental primers); E. coli BL21-AI; anaerobic glutathione column; [4Fe-4S] enzyme

Km [1]: 15.9 µM
Km [2]: 21.2 µM
SMILES: C/C(=C\COP(=O)(O)OP(=O)(O)O)CO [HMBDP, (E)-4-hydroxy-3-methylbut-2-enyl diphosphate]
